Test results as given in ChEMBL document CHEMBL1140757, “Studies toward the structural optimization of new brazilizone-related trypanocidal 1,3,4-thiadiazole-2-arylhydrazone derivatives” (Bioorg Med Chem, 2008).

Tested on: Trypanosoma cruzi
Assay: Trypanocidal activity against Trypanosoma cruzi Y trypomastigotes assessed as parasite lysis
Type: functional, organism-based

COc1cc(/C=N/Nc2nnc(-c3ncc([N+](=O)[O-])n3C)s2)cc([N+](=O)[O-])c1O
IC50: 19 µM

Cn1c([N+](=O)[O-])cnc1-c1nnc(N/N=C/c2cccc(Br)c2)s1
IC50: 728 µM

Cn1c([N+](=O)[O-])cnc1-c1nnc(N/N=C/c2ccccc2[N+](=O)[O-])s1
IC50: 726 µM

Cn1c([N+](=O)[O-])cnc1-c1nnc(N/N=C/c2ccccc2Br)s1
IC50: 900 µM

Cn1c([N+](=O)[O-])cnc1-c1nnc(N/N=C/c2cccc(Cl)c2Cl)s1
IC50: 1210 µM

Cn1c([N+](=O)[O-])cnc1-c1nnc(N/N=C/c2cccc([N+](=O)[O-])c2)s1
IC50: 48.2 µM

Cn1c([N+](=O)[O-])cnc1-c1nnc(N/N=C/c2cccc(O)c2)s1
IC50: 73.9 µM

Cn1c([N+](=O)[O-])cnc1-c1nnc(N/N=C/c2ccccc2Cl)s1
IC50: 140 µM

Cn1c([N+](=O)[O-])cnc1-c1nnc(N/N=C/c2cccc(Cl)c2)s1
IC50: 187 µM

Cn1c([N+](=O)[O-])cnc1-c1nnc(N/N=C/c2cccc(O)c2O)s1
IC50: 309 µM

Cn1c([N+](=O)[O-])cnc1-c1nnc(N/N=C/c2ccc(Cl)cc2Cl)s1
IC50: 794 µM

Cn1c([N+](=O)[O-])cnc1-c1nnc(N/N=C/c2cc(O)ccc2O)s1
IC50: 140 µM
